Laboratory results as given in patent US12297184B2 (Tesaro, Inc., priority 2018, dated 2025).
Converted amounts (≈) assume the structure as drawn.

Key:
[1] = Hygroscopicity by gravimetric (GVS) or dynamic (DVS) vapour sorption; type: physicochemical; conditions: for % Mass increase: at 90% RH, 25° C., GVS (camphorates, camsylate), DVS (mandelate); for Hygroscopicity (in words): from % mass increase at 90% RH
Method: Typically, approximately 10-20 mg of sample was placed into a mesh vapour sorption balance pan and loaded into an IGASorp Moisture Sorption Analyser balance by Hiden Analytical. The sample was subjected to a ramping profile from 40-90% relative humidity (RH) at 10% increments, maintaining the sample at each step until a stable weight had been achieved (98% step completion, minimum step length 30 minutes, maximum step length 60 minutes) at 25° C. After completion of the sorption cycle, the sample was dried using the same procedure to 0% RH, and finally taken back to the starting point of 40% RH. Two cycles were performed. The weight change during the sorption/desorption cycles were plotted, allowing for the hygroscopic nature of the sample to be determined.
Typically, approximately 10 mg of sample was placed into a mesh vapor sorption balance pan and loaded into a DVS-1/DVS Intrinsic/DVS Advantage dynamic vapor sorption balance by Surface Measurement Systems. The sample was subjected to a ramping profile from 40-90% relative humidity (RH) at 10% increments, maintaining the sample at each step until a stable weight had been achieved (dm/dt 0.004%, minimum step length 30 min, maximum step length 500 min) at 25° C. After completion of the sorption cycle, the sample was dried using the same procedure to 0% RH and then a second sorption cycle back to 40% RH. Two cycles were performed. The weight change during the sorption/desorption cycles were plotted, allowing for the hygroscopic nature of the sample to be determined.
GVS was performed on the crystalline solids produced in Examples land 3. DVS was performed on the crystalline solids produced in Example 2. Table 6 below summarizes the % mass increase observed at 90% RH for the samples.

[2] = for Solubility Water / Solubility pH 1 / Solubility pH 4.5 / Solubility pH 6.8: 24 h
Method: (§1) In an initial procedure (performed in triplicate), the salts were added in small aliquots to deionised water or to buffer solutions (10 mL) until saturation was achieved (˜20 mg was initially added), and the resulting slurry was shaken at 37° C. for 24 h. The following buffers (50 mM in each case) were used: • pH 1 25 mL KCl solution (1.49 g dissolved in 100 mL water) and 42.5 mL HCl solution (1.66 mL of concentrated HCl (˜37%) made up to 100 mL with water) were added together and made up to 100 mL with water; • pH 4.5 anhydrous sodium acetate (1.07 g) was dissolved in water (about 150 mL) before adding 5.9 mL acetic acid solution (11.6 mL glacial acetic acid made up to 100 mL with water). The resulting solution was made up to 500 mL with water; and • pH 6.8 25 mL of KH2PO4 solution (2.72 g dissolved in about 80 mL water and made up to 100 mL with water) and 11.2 mL of NaOH solution (800 mg of sodium hydroxide was dissolved and diluted to 100 mL with water) were added together and made up to 100 mL with water.
(§2) Any solids which were isolated by filtration were assessed by XRPD to determine whether the form of the material had changed.
(§3) The solubility assessment of these samples was repeated using the following procedure (samples prepared in triplicate):
(§4) The appropriate salt (30 mg) was weighed into a vial and water or buffer solution (1 mL) was added. The samples were shaken at 37° C. for 24 h. After 1 h and after about 17 h, further salt was added to the mandelate samples (except those in pH 1 buffer solution) to give an approximate 50-60 mg of solids. […] The samples were analysed as described above.

PARP activity = conditions: read-out: inhibition of PARP activity EC50; whole cell assay; cited from earlier work
[3] = tested on: cancer cells having mutant BRCA1 and BRCA2; conditions: read-out: inhibition of proliferation CC50; cited from earlier work
physchem = conditions: 37 °C, thermodynamic from solid
Method: as §1, §2, §3, §4

[4] = drug substance; cited from earlier work

Row | Compound | % Mass increase [1] [%] | Solubility Water [2] [µg/mL] | Solubility pH 1 [2] [mg/mL] | Solubility pH 4.5 [2] [mg/mL] | Solubility pH 6.8 [2] [mg/mL] | Hygroscopicity (in words) [1] | other results
1 | NC(=O)c1cccc2cn(-c3ccc(C4CCCNC4)cc3)nc12 [(+)-Camphorate, 2-{4-[(3S)-piperidin-3-yl]phenyl}-2H-indazole-7-carboxamide (niraparib) (1R,3S)-(+)-camphorate] | ~0.3 | 200 (≈ 0.624 mM) | 21.4 | 0.3 | 1.2 | – | –
2 | NC(=O)c1cccc2cn(-c3ccc(C4CCCNC4)cc3)nc12 [(−)-Camphorate, 2-{4-[(3S)-piperidin-3-yl]phenyl}-2H-indazole-7-carboxamide (niraparib) (1S,3R)-(−)-camphorate] | ~0.2 | – | – | – | – | – | –
3 | NC(=O)c1cccc2cn(-c3ccc(C4CCCNC4)cc3)nc12 [Camsylate, 2-{4-[(3S)-piperidin-3-yl]phenyl}-2H-indazole-7-carboxamide (niraparib) (1S)-(+)-camsylate] | ~1.3 | 5900 (≈ 18.4 mM) | 11.5 | 7.1 | 1.7 | slightly hygroscopic | –
4 | NC(=O)c1cccc2cn(-c3ccc(C4CCCNC4)cc3)nc12 [Mandelate, 2-{4-[(3S)-piperidin-3-yl]phenyl}-2H-indazole-7-carboxamide (niraparib) (R)-(−)-mandelate] | ~0.07 | 45400 (≈ 142 mM) | 163.1 | 53.8 | 7.8 | not hygroscopic | –
5 | NC(=O)c1cccc2cn(-c3ccc([C@@H]4CCCNC4)cc3)nc12 [Niraparib, 2-{4-[(3S)-piperidin-3-yl]phenyl}-2H-indazole-7-carboxamide] | – | – | – | – | – | – | EC50 (PARP activity): 4 nM; CC50 [3]: 10 to 100 nM
6 | NC(=O)c1cccc2cn(-c3ccc([C@@H]4CCCNC4)cc3)nc12 [Tosylate, 2-{4-[(3S)-piperidin-3-yl]phenyl}-2H-indazole-7-carboxamide 4-methylbenzenesulfonate hydrate 1:1:1] | – | – | – | – | – | – | solubility at 24 h (physchem; pH 1, simulated gastric fluid, Solubility pH 1): 900 µg/mL; solubility at 24 h (physchem; pH 6.8, aqueous buffer, Solubility pH 6.8): 900 µg/mL; solubility at 24 h (physchem; water, Solubility Water): 500 µg/mL; Aqueous solubility (background statement) [4]: low aqueous solubility; Hygroscopicity (background statement) [4]: non-hygroscopic
7 | camphorate | – | – | – | – | – | not hygroscopic | Solubility (in words, reading of Table 8) ([2]; comparison with tosylate salt, especially in low pH media): greater solubility than the tosylate salt
